Reference: patent publication US9434704B2, “Compositions and methods for the treatment of neurological degenerative disorders” (CELLIX BIO PRIVATE LIMITED, priority 2012, dated 2016)
Several values for one entry are separate records, joined by “and”; a condition that tells them apart may be missing. Identical values can stand only once.

Experiments:
[1] = rat, in vivo, 8 mg/kg
[2] = in vivo; conditions: female, Wistar, rat, ip, 8 mg/kg

time to reach spinal cord (SC) ([1]; female, Wistar): ≤ 15 min
time of Cmax in SC [1]: 1.5 h
absorption after I.P. administration ([1]; ip): readily absorbed
time of Cmax in brain ([1]; ip): 0.7 h
time of Cmax in plasma ([1]; ip): 0.5 h
Cmax [2]: 10200 ng/g and 3380 ng/mL
half-life ([2]; t1/2 in brain): 13.2 h
half-life ([2]; t1/2 in cervical SC): 13.2 h
half-life ([2]; t1/2 in plasma): 11 h
half-life ([2]; t1/2 in thoracic SC): 11 h
Compound: CC(OC(=O)CCCC[C@]1(C)CCSS1)OC(=O)Nc1nc2ccc(OC(F)(F)F)cc2s1 (stereo partly shown) [Formula II (2-1)]
